Assay results as given in ChEMBL document CHEMBL1150791, “blaVIM-2-harboring integrons isolated in India, Russia, and the United States arise from an ancestral class 1 integron predating the formation of the 3' conserved sequence” (2007).

Tested on: Pseudomonas aeruginosa
Test: Antibacterial activity against blaVIM2-harboring integrons containing Pseudomonas aeruginosa 42 isolate from ventilator-associated pneumonia patient
Format: functional

| Molecule | Activity [µg/mL] |
| --- | --- |
| NCC[C@H](O)C(=O)N[C@@H]1C[C@H](N)[C@@H](O[C@H]2O[C@H](CN)[C@@H](O)[C@H](O)[C@H]2O)[C@H](O)[C@H]1O[C@H]1O[C@H](CO)[C@@H](O)[C@H](N)[C@H]1O [AMIKACIN] | 8 |
| C[C@H]1[C@H](NC(=O)/C(=N\OC(C)(C)C(=O)O)c2csc(N)n2)C(=O)N1S(=O)(=O)O [AZTREONAM] | >256 |
| CO/N=C(\C(=O)N[C@@H]1C(=O)N2C(C(=O)[O-])=C(C[N+]3(C)CCCC3)CS[C@H]12)c1csc(N)n1 [CEFEPIME] | >256 |
| CC(C)(O/N=C(\C(=O)N[C@@H]1C(=O)N2C(C(=O)[O-])=C(C[n+]3ccccc3)CS[C@H]12)c1csc(N)n1)C(=O)O [CEFTAZIDIME] | 96 |
| O=C(O)c1cn(C2CC2)c2cc(N3CCNCC3)c(F)cc2c1=O [CIPROFLOXACIN] | >32 |
| C[C@@H](O)[C@H]1C(=O)N2C(C(=O)O)=C(SCCNC=N)C[C@H]12 [IMIPENEM ANHYDROUS] | >32 |
| C[C@@H](O)[C@H]1C(=O)N2C(C(=O)O)=C(S[C@@H]3CN[C@H](C(=O)N(C)C)C3)[C@H](C)[C@H]12 [MEROPENEM] | >32 |
| CCN1CCN(C(=O)N[C@@H](C(=O)N[C@@H]2C(=O)N3[C@@H]2SC(C)(C)[C@@H]3C(=O)O)c2ccccc2)C(=O)C1=O [PIPERACILLIN] | >256 |
| COLISTIN | 1 |
